# From paper PMC8648872, “A host-directed macrocyclic peptide therapeutic for MDR gram negative bacterial infections” (Scientific Reports, 2021)
# Where a SMILES comes first, the peptide text is derived from it. Bridges are numbered along the chain shown (N, C = ends).
# How the values were obtained:
# E. coli BAA-2340 = experiment: CRE E. coli BAA-2340 septicemia, survival; assay type: in vivo, BALB/c mice; conditions: KPC+ E. coli BAA-2340 i.p., saline controls 10%
# Method: (§1) BALB/c mice (Jackson Laboratories) 8–10 weeks of age were acclimated (3–5 to a cage for at least 5 days prior to infection) in a thermostatically controlled room with 12 h light/dark cycle. Cryopreserved K. pneumoniae cells were thawed and adjusted to a density of 6–10 × 10^8 CFU/ml, confirmed by plating on trypticase soy agar (TSA) plates. E. coli BAA-2340 was grown to log-phase in trypticase soy broth, pelleted, washed with PBS, and resuspended in PBS at 0.5–1 × 10^9 CFU/ml. Mice were infected by i.p. injection of 2–5 × 10^8 CFU of Kp-1705 or 3–6 × 10^7 CFU of E. coli BAA-2340 using a 28 g needle in a volume of 0.5 ml. Post-infection, mice were observed three times a day for at least 4 days and then daily for 28 days. Mice were euthanized when they became moribund. All experiments used both male and female mice and were repeated at least twice.
# Kp-1705 [1] = experiment: Bacterial burden in Kp-1705 infected mice; assay type: in vivo, BALB/c mice; conditions: 1.25 mg/kg i.p. 1 h p.i.
# Method: as §1
# Blood, peritoneal lavage fluid, and spleen homogenates were obtained from mice following by CO2 euthanasia. Citrate-anti-coagulated blood was collected by aseptic cardiac puncture. Peritoneal lavage was performed by injecting 3 ml of PBS into the peritoneal cavity, massaging the abdomen, and then collecting fluid aseptically through a minor incision in the abdominal wall. Spleen was surgically removed and homogenized in sterile PBS using Polytron PT10-35 homogenizer. Samples were serially diluted and plated in triplicate on TSA plates, incubated overnight at 37 °C and colonies counted.
# plasma cytokines = experiment: Plasma multiplex cytokine analysis in Kp-1705 sepsis; assay type: in vivo, BALB/c mice; conditions: 1.25 mg/kg i.p. 1 h p.i.
# Method: EDTA-anticoagulated blood was collected aseptically by terminal cardiac puncture and analyzed for complete blood cell count using an Element HT5 hematology analyzer (Heska). Blood plasma and clarified peritoneal lavage were prepared by two-step centrifugation described previously. Plasma cytokine levels were quantified using a mouse-specific MILLIPLEX MAP kit (Millipore Cat# MCYTMAG-70K) as described.
# Supplemental Table 1. Mice were challenged i.p. with Kp-1705 and treated 1 h later with MTD12813 (1.25 mg/kg i.p.) or saline. The sham cohort received bacteria-free suspension buffer at t=0 followed by saline 1 h later. Mice were euthanized 2, 4, or 24 h p.i., and plasma samples were subjected to multiplex cytokine analysis. P values calculated using ANOVA with Uncorrected Fisher’s LSD comparing saline and MTD12813 treated mice at respective time points.
# [2] = Peptide stability in human EDTA plasma; assay type: in vitro ADME; conditions: 90% (vol/vol) human EDTA-plasma, 37 °C, C18 RP-UPLC with PDA detector, read-out: peptide remaining intact
# Method: MTD12813 (final concentration of 100 µg/ml) was added to either 90% human EDTA plasma or 90% human serum and incubated at 37 °C for 48 h. Samples were processed by addition of 10% HOAc and 5% ACN (final concentrations) at time 0 and 48 h, and MTD12813 was quantified by C18 RP-HLPC on an Acquity H-Class UPLC with an analytical PDA detector using Empower 3 software (Waters). All samples were performed with technical replicates and analyzed by UPLC in duplicate and the experiment repeated once. […] A time 0 h sample was collected, and the remaining suspension incubated at 37 °C for 24 h. Samples were processed by addition of 5% formic acid/5% acetonitrile, vortexed, and clarified at 22,000×g for 10 min. Supernatant MTD12813 was then quantified by LC–MS/MS as described in PK section above. All samples were performed with technical replicates and analyzed by LC–MS/MS in duplicate.
# Kp-1705 [3] = experiment: Viability and replication fitness of Kp-1705 at sub-MIC peptide; assay type: cell-based, K. pneumoniae; conditions: Kp-1705 (1 x 10^9 CFU/ml), 1 h with 1.25 µg/ml MTD12813; CFU on TSA, growth at A620
# Method: Cryopreserved Kp-1705 was suspended in PBS to a density of ca. 1 × 10^9 CFU/ml, and incubated with saline or 1.25 µg/ml MTD12813 at room temperature for 1 h. Mice (n = 26) were then infected i.p. with 500 µl of saline- or MTD12813- pretreated Kp-1705, and a third cohort (n = 12) received 500 µl i.p. of 1.25 µg/ml MTD12813 immediately following infection with saline treated Kp-1705. Five mice from each cohort were euthanized 4 h p.i., and peritoneal lavage was collected for bacterial burden determination and cytospin preparation. In vitro antibacterial activity of MTD12813 (1.25 μg/ml) -treated cells (1 h; 37 °C) was determined by plating saline or peptide treated cells on TSA plates. Growth kinetics of saline and MTD12813-treated cells was determined by diluting samples from the 1 h incubation mixtures 1:40 into TSB and monitoring growth (620 nm) for 5.5 h at 37 °C. Antibacterial activity of MTD12813 in PF was determined by i.p. injection of naïve male BALB/c mice (n = 5 per group) with 1.25 mg/kg of MTD12813 or saline i.p. (10 ml/kg). […] Peritoneal fluid was clarified by centrifugation at 1200×g and an aliquot used to quantify MTD12813 by LC–MS/MS, as described above. Antimicrobial activity was determined by incubating PF (9:1 vol/vol) with Kp-1705 at a final density of 3 × 10^7 CFU/ml. […]
# replication fitness of Kp-1705. […] (a) Bacterial viability was quantified as CFU on TSA plates. […]
compound,measurement,setting,value
"CC[C@H](C)[C@@H]1NC(=O)[C@@H]2CSSC[C@H](NC(=O)[C@H]([C@@H](C)CC)NC(=O)[C@@H]3CSSC[C@H](NC1=O)C(=O)N[C@@H](C(C)C)C(=O)NCC(=O)N[C@@H](CCCNC(=N)N)C(=O)NCC(=O)N3)C(=O)N[C@@H](C(C)C)C(=O)N[C@@H](CCCNC(=N)N)C(=O)N[C@@H](CCCNC(=N)N)C(=O)N[C@@H](CCCNC(=N)N)C(=O)N2 [MTD12813] (cyclo(CICVGRGCICVRRR); disulfide 1-10, 3-8)",survival ≥ 28 days,E. coli BAA-2340; single i.p. injection 1.25 mg/kg 1 h p.i.,100%
same,survival ≥ 28 days,E. coli BAA-2340; single i.p. injection 5 mg/kg 1 h p.i.,100%
same,"reduction of viable bacteria versus saline, PLF",Kp-1705 [1]; 4 h p.i.,99.5%
same,"reduction of viable bacteria versus saline, blood",Kp-1705 [1]; 4 h p.i.,79.1%
same,"reduction of viable bacteria versus saline, spleen",Kp-1705 [1]; 4 h p.i.,70.4%
same,"reduction of bacterial burden, PLF",Kp-1705 [1]; 24 h,99.8%
same,"reduction of bacterial burden, blood",Kp-1705 [1]; 24 h,93.8%
same,"reduction of bacterial burden, spleen homogenates",Kp-1705 [1]; 24 h,94.4%
same,plasma CCL4 and CXCL2,plasma cytokines; 2 h p.i.,statistically significant reductions
same,plasma IL-9 and IL-15 levels,plasma cytokines; 4 h p.i.,significant increases
same,"plasma TNF, IL-6 and CXCL1 (KC)",plasma cytokines; 4 h p.i.,significantly reduced
same,change of plasma TNF versus saline,plasma cytokines; 24 h p.i.,-89.8%
same,"remaining at 48 h, 100 µg/ml",[2],> 95%
same,bacterial viability and replication fitness,Kp-1705 [3],no effect on bacterial viability or replication fitness
